Laboratory results as given in BindingDB's records for patent US20240059728 (Galecto Biotech, 2024).

Columns and labels:
Galectin-1 = Galectin-1 (Homo sapiens, UniProt P09382); test: Evaluation of Kd Values
Experimental: (§1) The affinity of Example 1-14 for galectins were determined by a fluorescence anisotropy assay where the compound was used as an inhibitor of the interaction between galectin and a fluorescein tagged saccharide probe as described S rme, P., Kahl-Knutsson, B., Huflejt, M., Nilsson, U. J., and Leffler H. (2004) Fluorescence polarization as an analytical tool to evaluate galectin-ligand interactions. Anal. Biochem. 334: 36-47, (Sarme et al., 2004) and Monovalent interactions of Galectin-1 By Salomonsson, Emma; Larumbe, Amaia; Tejler, Johan; Tullberg, Erik; Rydberg, Hanna; Sundin, Anders; Khabut, Areej; Frejd, Torbjorn; Lobsanov, Yuri D.; Rini, James M.; et al, From Biochemistry (2010), 49(44), 9518-9532, (Salomonsson et al., 2010).

Galectin-3 = Galectin-3 (Homo sapiens, UniProt P17931); test: Evaluation of Kd Values
Experimental: as §1

Galectin-3, sequence (P17931 whole entry): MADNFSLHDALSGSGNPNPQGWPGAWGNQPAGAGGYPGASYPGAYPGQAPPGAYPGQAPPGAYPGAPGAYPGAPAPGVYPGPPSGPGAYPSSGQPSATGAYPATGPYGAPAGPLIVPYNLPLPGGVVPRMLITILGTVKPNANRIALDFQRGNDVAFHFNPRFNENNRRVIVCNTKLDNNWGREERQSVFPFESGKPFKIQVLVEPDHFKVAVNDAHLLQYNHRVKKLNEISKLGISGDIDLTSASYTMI
Galectin-1, sequence (P09382 whole entry): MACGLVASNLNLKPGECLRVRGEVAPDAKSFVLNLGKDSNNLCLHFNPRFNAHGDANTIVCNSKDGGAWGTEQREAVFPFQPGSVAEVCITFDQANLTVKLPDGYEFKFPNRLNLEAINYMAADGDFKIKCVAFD

Row | Kd (Galectin-1) [nM] | Kd (Galectin-3) [nM] | Structure (SMILES)
1 | 890 | 6 | OCC1O[C@@H](S[C@@H]2O[C@H](CO)C(O)C(n3cc(-c4cc(F)c(F)c(F)c4)cn3)[C@H]2O)C(O)[C@@H](n2cc(-c3cc(F)c(F)c(F)c3)cn2)[C@H]1O (some centres undefined) [US20240059728, Example 5]
2 | 780 | < 10 | OCC1O[C@@H](S[C@@H]2O[C@H](CO)C(O)C(n3cc(-c4cccc(F)c4)cn3)[C@H]2O)C(O)[C@@H](n2cc(-c3cccc(F)c3)cn2)[C@H]1O (some centres undefined) [US20240059728, Example 4]
